Values of other authors as cited in patent US20110208161A1, “INT[…] […] TO THE CENTRAL NERVOUS SYSTEM” (priority 2009, published 2011).
Where a SMILES comes first, the peptide text is derived from it.

Target: T1, μ receptor (Oryctolagus cuniculus, UniProt G1TAQ8)
T1 construct: host or cells: brain tissue at the fourth ventricle, in vivo
Conditions: infusion into the fourth ventricle

T1 sequence (G1TAQ8 1-401): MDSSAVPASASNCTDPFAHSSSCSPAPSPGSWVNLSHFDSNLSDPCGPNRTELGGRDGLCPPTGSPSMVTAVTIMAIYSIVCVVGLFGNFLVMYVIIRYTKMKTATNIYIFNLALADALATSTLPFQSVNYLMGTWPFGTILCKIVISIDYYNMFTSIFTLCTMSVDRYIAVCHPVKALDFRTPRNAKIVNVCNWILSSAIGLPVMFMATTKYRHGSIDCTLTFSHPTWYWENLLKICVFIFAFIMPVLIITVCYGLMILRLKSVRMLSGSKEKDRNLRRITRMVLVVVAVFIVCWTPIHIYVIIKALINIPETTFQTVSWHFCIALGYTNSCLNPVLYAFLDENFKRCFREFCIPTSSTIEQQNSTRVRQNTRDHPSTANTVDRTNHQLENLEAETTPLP

SMILES: NC(=O)[C@@H]1CCCN1C(=O)[C@H](Cc1ccccc1)NC(=O)[C@@H]1CCCN1C(=O)[C@@H](N)Cc1ccc(O)cc1 [morphiceptin] (H-YPFP-NH2)
- effect on spinal cord nociceptive transmission: attenuate spinal cord nociceptive transmission
